Results reported in ChEMBL document CHEMBL1201862, “PubChem BioAssay data set” (2004).
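48-hour exposure; five concentrations; linearly interpolated endpoints. Abbreviation: GI50, concentration required for 50% inhibition of growth.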 Active and inactive are the calls of the source. Cut-off read from the data, not from the text of the source: active = GI50 up to about 1.1 µM and inactive = higher.

Columns and labels:
Experiment in all cases: NCI anticancer screen, dose series, 48 h
KM12 = test system: KM12
SNB-75 = test system: SNB-75
NCI-H522 = test system: NCI-H522
DLD-1 = test system: DLD-1
SR = test system: SR
RXF 393 = test system: RXF 393
Hs-578T = test system: Hs-578T
HCC 2998 = test system: HCC 2998
U-251 = test system: U-251
HT-29 = test system: HT-29
DU-145 = test system: DU-145
CCRF-CEM = test system: CCRF-CEM
A549 = test system: A549
SF-268 = test system: SF-268
786-0 = test system: 786-0
HOP-62 = test system: HOP-62
EKVX = test system: EKVX
CAKI-1 = test system: CAKI-1
NCI-H226 = test system: NCI-H226
SK-MEL-2 = test system: SK-MEL-2

Compound	GI50 (KM12)	GI50 (SNB-75)	GI50 (NCI-H522)	GI50 (DLD-1)	GI50 (SR)	GI50 (RXF 393)	GI50 (Hs-578T)	GI50 (HCC 2998)	GI50 (U-251)	GI50 (HT-29)	GI50 (DU-145)	GI50 (CCRF-CEM)	GI50 (A549)	GI50 (SF-268)	GI50 (786-0)	GI50 (HOP-62)	GI50 (EKVX)	GI50 (CAKI-1)	GI50 (NCI-H226)	GI50 (SK-MEL-2)
CC(=O)O.CN1CCN(CN2C(=O)C3C4C=CC(C3C2=O)C2C3C(=O)N(CN5CCN(C)CC5)C(=O)C3C42)CC1 (configuration not stated)	22.3 µM (inactive)	23.3 µM (inactive)	18.6 µM (inactive)	19.1 µM (inactive)	13.4 µM (inactive)	17.7 µM (inactive)	> 100 µM (inactive)	22.2 µM (inactive)	19 µM (inactive)	25.3 µM (inactive)	25.1 µM (inactive)	18.5 µM (inactive)	22 µM (inactive)	27.5 µM (inactive)	19.9 µM (inactive)	> 50 µM (inactive)				
O=C1NC(=O)C(CCC(=O)c2ccc3ccccc3c2)C(=O)N1	> 100 µM (inactive)	> 100 µM (inactive)	20.1 µM (inactive)	> 100 µM (inactive)	> 100 µM (inactive)	> 100 µM (inactive)		> 100 µM (inactive)	> 100 µM (inactive)	> 100 µM (inactive)		> 100 µM (inactive)	> 100 µM (inactive)	> 100 µM (inactive)	> 100 µM (inactive)	> 100 µM (inactive)	> 100 µM (inactive)	> 100 µM (inactive)	> 100 µM (inactive)	> 100 µM (inactive)
COC(=O)C(=O)C(C(=O)OC)C(=O)C(=O)Nc1c(C)cccc1C (configuration not stated)	> 100 µM (inactive)	> 100 µM (inactive)	97.5 µM (inactive)	> 100 µM (inactive)	> 100 µM (inactive)	> 100 µM (inactive)		> 100 µM (inactive)	> 100 µM (inactive)	> 100 µM (inactive)		48.2 µM (inactive)	> 100 µM (inactive)	> 100 µM (inactive)	> 100 µM (inactive)	> 100 µM (inactive)	> 100 µM (inactive)	> 100 µM (inactive)	> 100 µM (inactive)	> 100 µM (inactive)
CCN(CC)CCNc1c2ccccc2nc2cccc([N+](=O)[O-])c12	0.0352 µM (active)	0.0176 µM (active)	0.00434 µM (active)	0.0225 µM (active)	0.00434 µM (active)	0.0176 µM (active)	0.017 µM (active)	0.0151 µM (active)	0.0123 µM (active)	0.0122 µM (active)	0.0031 µM (active)	0.0462 µM (active)	0.00826 µM (active)	0.012 µM (active)	0.0136 µM (active)	0.00638 µM (active)	0.0177 µM (active)	0.0158 µM (active)	0.0179 µM (active)	0.0133 µM (active)
O=C(CNc1ccc2c(=S)c3ccccc3[nH]c2c1)Nc1ccccc1-c1ccccc1NC(=O)CNc1ccc2c(=S)c3ccccc3[nH]c2c1	18.5 µM (inactive)	26.5 µM (inactive)	6.38 µM (inactive)	11 µM (inactive)	6.01 µM (inactive)	27 µM (inactive)	29.2 µM (inactive)	15.1 µM (inactive)	19.6 µM (inactive)	19.7 µM (inactive)	18.3 µM (inactive)	2.73 µM (inactive)	24.3 µM (inactive)	22 µM (inactive)	13.1 µM (inactive)	24.3 µM (inactive)	24.4 µM (inactive)	30.1 µM (inactive)	26 µM (inactive)	15.6 µM (inactive)
